Laboratory results taken from publication PMC9395968, “Pristimerin, a triterpene that inhibits monoacylglycerol lipase activity, prevents the development of paclitaxel-induced allodynia in mice” (Frontiers in Pharmacology, 2022).

Legend:
[1] = biological target: T1, mouse monoacylglycerol lipase (MAGL) (Mus musculus, UniProt O35678); assay: fluorometric MAGL activity assay in paw skin supernatant (brain IC50 […]); format: biochemical
T1 construct: gene Mgll
T1 sequence (O35678 1-303): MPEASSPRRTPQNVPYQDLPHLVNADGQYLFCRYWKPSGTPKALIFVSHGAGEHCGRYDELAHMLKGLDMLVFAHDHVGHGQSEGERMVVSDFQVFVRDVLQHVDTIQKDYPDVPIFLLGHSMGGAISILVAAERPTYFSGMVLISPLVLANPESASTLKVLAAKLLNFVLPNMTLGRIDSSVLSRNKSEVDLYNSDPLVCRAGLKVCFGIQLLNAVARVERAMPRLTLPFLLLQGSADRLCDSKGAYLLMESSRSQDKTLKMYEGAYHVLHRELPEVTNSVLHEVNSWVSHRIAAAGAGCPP

[2] = biological target: T2, human recombinant monoacylglycerol lipase (MAGL) (Homo sapiens, UniProt Q99685); assay: colorimetric MAGL inhibitor screening kit (4-nitrophenyl acetate hydrolysis, […] nm); format: biochemical
T2 construct: gene MGLL
T2 sequence (Q99685 1-303): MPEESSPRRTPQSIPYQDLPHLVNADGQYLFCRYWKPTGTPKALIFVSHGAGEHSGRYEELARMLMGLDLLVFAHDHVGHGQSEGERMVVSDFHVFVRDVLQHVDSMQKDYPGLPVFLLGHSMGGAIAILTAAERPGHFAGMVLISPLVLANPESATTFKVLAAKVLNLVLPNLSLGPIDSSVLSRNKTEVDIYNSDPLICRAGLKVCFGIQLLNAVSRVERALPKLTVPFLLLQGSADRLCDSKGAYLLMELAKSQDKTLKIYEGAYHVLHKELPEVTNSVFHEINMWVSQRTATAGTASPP

## COC(=O)[C@]1(C)CC[C@]2(C)CC[C@]3(C)C4=CC=C5C(=CC(=O)C(O)=C5C)[C@]4(C)CC[C@@]3(C)[C@@H]2C1 [pristimerin]
[1]
  IC50: 0.596 µM
[2]
  IC50: 0.13 µM
